Where a name gives a salt, the structure may show the parent alone.
How the values were obtained:
[1] = target: T1, human serotonin transporter (hSERT) (Homo sapiens, UniProt P31645); assay: SPA radioligand binding (3H-citalopram) at the human serotonin transporter; details: hSERT membranes from HEK-293 cells, Cheng-Prusoff, geometric mean, read-out: SRI Ki
T1 construct: expressed in transfected cells; host or cells: HEK-293
Description: (§1) The compounds were tested for biological activity by their ability to inhibit binding of selective radioligands at the human serotonin and noradrenaline transporters (SERT and NET, respectively), using scintillation proximity assay (SPA) technology. The SPA binding was performed using cellular membrane preparations prepared from cell lines expressing human cDNA encoding either SERT or NET (hSERT, hNET), using the radioligands ^3H-citalopram and ^3H-nisoxetine.
(§2) Human embryonic kidney cells (HEK-293) expressing each transporter were maintained as a continuous culture, using standard cell culture techniques, in 50 mL of growth medium (see Media and Buffers for composition) in 225 cm^2 flasks, at 37° C. in a humidified atmosphere with 5% CO2 present. Cells were passaged from a 90% confluent monolayer at a ratio of 1:3-1:4.
(§3) For cell harvesting, the growth medium was removed from the monolayer and the cells were incubated with cell dissociation solution (Sigma) until showing signs of dissociation. The cells were subsequently knocked from the base of the flask and pelleted by centrifugation for storage (frozen at −80° C.) prior to further use.
(§4) Cell pellets were thawed on ice and resuspended in 3 mL of membrane preparation buffer (see Media and Buffers for composition) per 1 mL of packed cell volume, using a vortex mixer to disperse the cell pellet.
(§5) After incubation on ice for 10 minutes, the suspension was homogenised for four individual 10 second intervals using a hand-held homogeniser. The homogenate was then centrifuged at 1075×g for 20 minutes at 4° C.
(§6) The supernatants were then collected and retained. Initial cell & nuclei pellets (P1) were subsequently rehomogenised and centrifuged using the conditions cited above, and the supernatants collected and pooled with those retained from the first spin.
(§7) The pooled supernatants were centrifuged at 35000×g for 30 minutes at 4° C., and the supernatants discarded. The pellets (P2) were then resuspended in 1 mL of membrane preparation buffer per 1 mL of the original packed cell volume. Protein concentrations were then measured and the membrane suspension was finally frozen in aliquots of set volume and stored at −80° C. prior to use in assays.
(§8) The specific SPA bead type differed for each transporter, wheat germ agglutinin-coated yttrium silicate (YSi WGA) SPA beads were used for hSERT and WGA-coated polyvinyltoluene (PVT WGA) SPA beads for hNET assays. For each batch of membrane used, optimal concentrations of bead and membrane were determined
(§9) Tritiated radioligands specific to each transporter (^3H-citalopram for hSERT and ^3H-nisoxetine for hNET) were used. The assay free radioligand concentration was expressed as a percentage of the total free radioligand concentration to give an estimate of the radioligand depletion. The radioligand depletion in assays for both transporters was less than 30% to ensure that there was sufficient radioligand available for binding. The ligand depletion value was also used for selecting the optimal assay conditions when using new batches of membranes.
(§10) The affinity of the specific radioligand for the respective transporter was determined for each membrane batch at the selected protein and bead concentrations. This was achieved by the determination of the KD, the concentration of free radioligand at which 50% of the transporter binding sites were occupied. The mean KD for a radioligand at a batch of membranes was determined from data from a minimum of three separate assays. The mean KD was subsequently used for all assays using the membrane batch profiled to enable determination of Ki values of compounds studied using the method determined by Cheng and Prussoff (Cheng Y C and Prusoff W H. Relationship between the inhibition constant (Ki) and the concentration of inhibitor which causes 50% inhibition of an enzymatic reaction. Biochem Pharmacol 1973; 22:2099-[…].) […]

[2] = target: T2, human noradrenaline transporter (hNET) (Homo sapiens, UniProt P23975); assay: SPA radioligand binding (3H-nisoxetine) at the human noradrenaline transporter; details: hNET membranes from HEK-293 cells, Cheng-Prusoff, geometric mean, read-out: NRI Ki
T2 construct: expressed in transfected cells; host or cells: HEK-293
Description: as §1, §2, §3, §4, §5, §6, §7, §8, §9, §10

T1 sequence (P31645 whole entry): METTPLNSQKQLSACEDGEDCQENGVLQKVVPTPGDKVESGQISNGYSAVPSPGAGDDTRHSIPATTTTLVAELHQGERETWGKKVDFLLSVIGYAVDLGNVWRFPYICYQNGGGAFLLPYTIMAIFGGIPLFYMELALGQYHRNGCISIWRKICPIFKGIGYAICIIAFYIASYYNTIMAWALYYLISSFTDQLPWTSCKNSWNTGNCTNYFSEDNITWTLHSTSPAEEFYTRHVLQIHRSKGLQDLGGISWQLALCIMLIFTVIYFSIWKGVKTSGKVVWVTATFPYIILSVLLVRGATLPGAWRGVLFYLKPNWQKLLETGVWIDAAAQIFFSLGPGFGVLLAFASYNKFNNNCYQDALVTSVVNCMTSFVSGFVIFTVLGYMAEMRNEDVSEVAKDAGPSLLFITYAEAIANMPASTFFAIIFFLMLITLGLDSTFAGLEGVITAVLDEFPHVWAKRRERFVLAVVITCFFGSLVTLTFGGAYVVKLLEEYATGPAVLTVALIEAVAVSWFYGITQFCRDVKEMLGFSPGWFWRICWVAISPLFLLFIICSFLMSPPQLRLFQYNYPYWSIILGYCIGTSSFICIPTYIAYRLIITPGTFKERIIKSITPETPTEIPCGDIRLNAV
T2 sequence (P23975 whole entry): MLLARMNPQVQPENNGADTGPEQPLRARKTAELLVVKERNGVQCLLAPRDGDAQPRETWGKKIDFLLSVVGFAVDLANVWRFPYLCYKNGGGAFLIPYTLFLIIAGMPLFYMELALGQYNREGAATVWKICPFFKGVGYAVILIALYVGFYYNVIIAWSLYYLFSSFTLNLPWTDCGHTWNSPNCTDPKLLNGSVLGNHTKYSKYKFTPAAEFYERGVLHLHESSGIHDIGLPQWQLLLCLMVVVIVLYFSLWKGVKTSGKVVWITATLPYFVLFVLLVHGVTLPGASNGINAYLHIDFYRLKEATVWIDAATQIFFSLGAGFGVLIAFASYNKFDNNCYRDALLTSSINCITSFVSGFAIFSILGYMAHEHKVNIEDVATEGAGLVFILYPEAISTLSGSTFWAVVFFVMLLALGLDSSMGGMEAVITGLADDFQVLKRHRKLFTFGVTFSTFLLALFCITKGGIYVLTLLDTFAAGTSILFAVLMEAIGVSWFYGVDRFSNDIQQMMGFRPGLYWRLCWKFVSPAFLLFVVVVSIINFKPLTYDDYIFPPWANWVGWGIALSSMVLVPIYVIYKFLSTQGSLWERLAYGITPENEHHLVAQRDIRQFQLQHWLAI

Question: What does the source list for O=C(c1cccc(Cl)c1Cl)N([C@H]1C[C@H]2CC[C@H]2C1)[C@H]1CCNC1 [Example 1, N-(1R,3r,5 S)-Bicyclo[3.2.0]hept-3-yl-2,3-dichloro-N-[(3S)-pyrrolidin-3-yl]benzamide]?
Answer: Ki [1]: 9 nM; Ki [2]: 12 nM

Question: What does the source list for O=C(c1cccc(Cl)c1Cl)N(CCC(F)(F)F)[C@H]1CCNC1 [Example 5, 2,3-Dichloro-N-[(3S)-pyrrolidin-3-yl]-N-(3,3,3-trifluoropropyl)benzamide hydrochloride]?
Answer: Ki [1]: 21 nM; Ki [2]: 58 nM

Question: For O=C(c1cccc(Cl)c1Cl)N(C(C1CC1)C1CC1)[C@H]1CCNC1 [Example 10, 2,3-dichloro-N-(dicyclopropylmethyl)-N-[(3S)-pyrrolidin-3-yl]benzamide hydrochloride], which Ki [1] is on record?
Answer: Its Ki is 11 nM.

Question: And the Ki [2]?
Answer: Its Ki is 72 nM.

Question: Which Ki [1] does the source give for O=C(c1ccccc1C(F)(F)F)N(C1CC2CCC1C2)[C@H]1CCNC1 (stereo partly drawn) [Example 3, N-Bicyclo[2.2.1]hept-2-yl-2-(trifluoromethyl)N-[(3S)pyrrolidin-3-yl]benzamide] here?
Answer: The Ki was 30 nM.

Question: And the Ki [2]?
Answer: The Ki was 28 nM.

Question: What does the source list for CC(F)(F)CN(C(=O)c1ccccc1Oc1ccccc1)[C@H]1CCNC1 [Example 7, N-(2,2-Difluoropropyl)-2-phenoxy-N-[(3S)-pyrrolidin-3-yl]benzamide hydrochloride]?
Answer: Ki [1]: 1590 nM; Ki [2]: 10 nM

Question: O=C(c1ccccc1Cl)N(C1CC2CCC1C2)[C@H]1CCNC1 (stereo partly drawn) [Example 4, N-Bicyclo[2.2.1]hept-2-yl-2-chloro-N-[(3S)-pyrrolidin-3-yl]benzamide] was tested. Which Ki [1] did it give?
Answer: Its Ki is 6 nM.

Question: What about the Ki [2] of the same compound?
Answer: Its Ki is 25 nM.
